The text below walks through data of patent US20170209514A1, “Method For Promoting Bone Length Growth” (Novatec Co., Ltd., priority 2013, published 2017).

Holding throughout (assay type): in vivo, Sprague-Dawley rats
One data set concerns growth plate. In words: Changes in cartilaginous tissues within the growth plate (H&E staining). As to conditions: rats, after 10-day administration, FIGS. 5A-7. As to the method:
(§1) 3 weeks-old, male Sprague-Dawley rats were obtained and stabilized for 3 days. The feeding conditions included the temperature of 24±2° C., the light-dark cycle of 12 hours, and common solid feed without the inclusion of antibiotics. While the Control group was treated with saline solution, the bamboo (Bambusae caulis in Taeniam) extract, which was prepared in the powder form as described in the above example 1 and added with water, was orally administered once daily. The Positive Control group was treated subcutaneously with the injection of Eutropin (LG Life Sciences, South Korea) at 20 μg/kg once daily.
(§2) The administered substances and dosages in each group are as follows: • Control Group: normal saline solution 1 ml • Positive Control Group: growth hormone 20 μg/kg • Bamboo (Bambusae caulis in Taeniam)-treated Group: 200 mg/kg
(§3) After 10 days of feeding and administration of the above-mentioned substances, the rats were sacrificed with autopsy performed to find the following results.
In order to measure the length of the growth plate zone, the cartilaginous tissues were fixated after autopsy, followed by H&E staining and microscope examination. The length of the growth plate zone was measured five(5) times for each sample. The resulting mean values as obtained were used as a representative value for evaluating their significance.

Data set [1] in a line: Change in body weight of experimental animals. As to conditions: rats, observation of 10 days, FIG. 1 (bamboo extract 200 mg/kg oral; GH 20 μg/kg s.c.). On the procedure: as §1
Regarding the administration method of the bamboo (Bambusae caulis in Taeniam) extract according to the present invention, rats in all the groups except for the Positive Control group were administered into their oral cavities, while all the rats were administered once daily.
The administered substances and dosages in each group are as follows: • Control Group: normal saline solution 1 ml • Positive Control Group: growth hormone 20 μg/kg • Bamboo (Bambusae caulis in Taeniam)-treated Group: 200 mg/kg […]
Rats of each group in Experiment <1-1> were tested for their body weight at pre- and post-feeding of 10 days. […] The measured values were statistically analyzed for mean value and standard deviation.

A further data set relates to tibia. Description: Measurement of changes in tibia length by X-ray. As to conditions: rats, after 10-day administration, vs Control group, FIGS. 3A-3C & 4. On the procedure: as §1, §2, §3
After 10-day administration as described in Experiment <1-1>, both right and left tibias of the rats in the experimental group (i.e. Bamboo (Bambusae caulis in Taeniam) extract-treated group) and the control groups were collected, followed by the removal of the muscles, fats and ligaments attached to the bone tissues. […] Tibia length was measured by X-ray radiographs on the tibias.

Another data set relates to osteocalcin. Description: Osteoblast-activating factor osteocalcin in the serum (ELISA). To be noted: rats, after 10-day administration, in comparison with the Control group, FIG. 10. As to the method: as §1, §2, §3
After the completion of the administration, blood was collected from the hearts of the experimental rats and coagulated. Serum was then separated so as to obtain samples. Subsequently, the total level of osteocalcin in the serum was measured by using Rat Ostecalcin/Bone Gla Protein. OT/BGP ELISA Kit (Cusabio, product no.: CSB-E05129r).
On the technique in general: ELISA stands for enzyme-linked immunosorbent assay.

“GH: Growth hormone positive control, Eutropin (LG Life Sciences, South Korea), injected subcutaneously at 20 μg/kg once daily”: in the data set on growth plate, the “Length of the hypertrophic zone within the growth plate” value is given as “increased greater than that of the Control group” and the “Length of the proliferative zone within the growth plate” value is given as “increased greater than that of the Control group”. Moreover, in data set [1], the Weight change entry is “no significant difference in weight change”. Further, the Total tibia length result in the data set on tibia is recorded as “increased greater than that of the Control group”. In addition, in the data set on osteocalcin, the “Level of osteocalcin in the serum” value is “significantly increased”.
